Data on three compounds can be found in paper PMC4496781, “Functional Roles of Aromatic Residues and Helices of Papiliocin in its Antimicrobial and Anti-inflammatory Activities” (Scientific Reports, 2015).

Data set [1] has as its system gram-negative bacteria (E. coli, S. typhimurium, P. aeruginosa). As to conditions: for Therapeutic Index (MHC/GM), gram-negative: ratio MHC (μM) over GM of MIC (μM). As for the experimental part:
(§1) This property is assessed by the therapeutic index which can be defined as a ratio of the […] against human hRBCs to the MIC against bacterial cells.
(§2) MICs of the peptides against six standard bacteria and four multidrug-resistant bacteria were determined by a broth microdilution assay as described previously. […] Cytotoxicities against mammalian cells were measured against human RBCs, mouse macrophage-derived RAW264.7 cells, and fibroblast NIH-3T3 cells. The anti-inflammatory activities of the peptides were examined by inhibiting nitrite production in LPS-stimulated RAW264.7 cells.

Data set [2] has as its system gram-positive bacteria (B. subtilis, E. faecalis, S. aureus). As to conditions: for Therapeutic Index (MHC/GM), gram-positive: ratio MHC (μM) over GM of MIC (μM). The method, then:
as §1, §2

A further data set deals with Eenterococcus faecalis. The method, then:
as §2

The test system of the next data set is human erythrocytes. Put plainly: Hemolytic activity. The conditions noted are these: for MHC (minimal peptide concentration that produces hemolysis): human RBCs, 200 μM entered when no detectable hemolysis at 100 μM. In kind it is cell-based. The method, then: (§3) We examined the cytotoxicity against human erythrocytes. […] Next, we examined the cytotoxicity of the peptides against RAW264.7 macrophage cells. We assessed the effects of the peptides on cell growth by measuring mitochondrial reduction of MTT to a colored product in live cells. […] On the other hand, PapC produced high cytotoxicity against RAW264.7 cells, even at low concentrations. […] In case of PapN-2A, Pap-5A, and Pap-2A5A, the cell survival rates at a peptide concentration of 100 μM were approximately 90% or more. Thus, Trp^2 and Phe^5 are important for the cytotoxic activity of papiliocin toward RAW264.7 cells.
as §2

A short description of data set [3]: Calcein leakage from zwitterionic LUVs. The conditions noted are these: EYPC/CH 10:1 LUVs, mimic human erythrocytes. As for the experimental part:
Figure 5 Dose-response curves of calcein leakage from (A) egg yolk phosphatidylcholine (EYPC)/egg yolk phosphatidylglycerol (EYPG) (7:3, w:w) and (B) EYPC/cholesterol (CH) large unilamellar vesicles (LUVs; 10:1, w-w) induced by the peptides. Calcein leakage was measured 2 min after the addition of papiliocin. The lipid concentration used in the leakage experiments was 64 μM.
None of the peptides containing the N-terminal helix permeated zwitterionic vesicles (10:1 [w/w] EYPC/CH) effectively. Zwitterionic vesicles mimic the outer leaflet components of human erythrocytes.
In order to investigate the mode of action, membrane permeabilization ability was monitored using a model membrane and E.coli. Calcein leakage induced by the peptides was measured in egg yolk phosphatidylcholine (EYPC)/egg yolk phosphatidylglycerol (EYPG) (7:3, w/w) and EYPC/cholesterol (CH) large unilamellar vesicles (LUVs; 10:1, w:w) as described previously. The depolarization assay was conducted with intact E. coli bacteria (KCTC 1682) as well as E. coli spheroplasts (ATCC 25922)[51][52]. The ability of peptide to depolarize the membrane is indicated by an increase in the fluorescence of diSC3-5. […] The membrane potential dissipating activity of the peptides can be calculated as follows: […]

Another data set deals with MDRST 8009(R). As to conditions: broth microdilution, 16 h; unit not given. The method, then: (§4) We examined the antimicrobial activities of the peptides against multidrug-resistant bacterial strains, including four gram-negative species (S. typhimurium 8009(R), E. coli 1229(R), P. aeruginosa 2095(R), and A. baumannii 12035(R); Table 3).
as §2

The subject of the next data set is MDRAB 12035(R). The conditions noted are these: broth microdilution, 16 h; unit not given. As for the experimental part: as §4, §2
In another data set the test system is MDRPA 2095(R). The conditions noted are these: 16 h. The method, then: as §4, §2
The subject of another data set is MDREC 1229(R). As to conditions: 16 h. The method, then:
as §4, §2

In data set [4] the test system is RAW264.7 macrophage cells. Put plainly: Cytotoxicity, MTT. In kind it is cell-based, mouse. As for the experimental part: as §3, §2
A further data set relates to Salmonella typhimurium. As for the experimental part: as §2
The next data set concerns Escherichia coli. As for the experimental part:
as §2

In another data set the test system is Bacillus subtilis. As for the experimental part:
as §2

The subject of another data set is Staphylococcus aureus. The method, then: as §2
In the next data set the test system is Pseudomonas aeruginosa. The method, then:
as §2

Data set [5] has as its system LPS-stimulated RAW264.7 cells. Put plainly: Inhibition of NO (nitrite) production. As to conditions: 10 μM peptide stated for PapN series. In kind it is cell-based, mouse.
Description: When released from gram-negative bacteria, LPS causes septic shock by inducing the production of pro-inflammatory cytokines and NO[33]. To examine the structural mechanism of the anti-inflammatory activity of papiliocin, we indirectly measured inhibition of NO production by the peptides in LPS-simulated RAW264.7 macrophages. […] Papiliocin was markedly more efficient than papiliocin-2A, papiliocin-5A, or papiliocin-2A5A, implying that Trp^2 and Phe^5 are important for anti-inflammatory activity.
as §2

The subject of another data set is E. coli (KCTC 1682). Put plainly: Time-killing kinetics. In kind it is cell-based, Escherichia coli. As to conditions: even at 4× MIC, 37 °C.
The nature of data set [6]: STD-NMR of peptides bound to LPS. In kind it is binding. The conditions noted are these: 0.5 mM peptide, 0.1 mg/mL LPS in D2O, pH 5.9, 298 K. As for the experimental part: To investigate the mode of peptide interaction with LPS, we performed STD-NMR experiments.
(A) Papiliocin, (B) PapN, and (C) PapC. Spectral differences primarily constituted resonances fromn the peptide protons bound to LPS. The STD experiments were carried out using a peptide concentration of 0.5 mM in presence of 0.1 mg/mL LPS in D2O, pH 5.9 at 298 K.

[7] abbreviates: three gram-negative standard strains, 256 μM used when no activity at 128 μM.
The mark [8] stands for this setting: three gram-positive standard strains, 256 μM used when no activity at 128 μM.
[9] abbreviates: broth microdilution, 16 h incubation, three independent experiments in triplicate, SD 14.0%.
The mark [10] stands for this setting: broth microdilution, unit not given.

Converted amounts (≈) assume the structure as drawn. Like-named read-outs stand apart in the source and are kept apart here. Ends that are not written are not given here.

With `CC[C@H](C)[C@H](NC(=O)CN)C(=O)NCC(=O)N[C@@H](C)C(=O)N[C@H](C(=O)N[C@@H](CC(C)C)C(=O)N[C@@H](CCCCN)C(=O)N[C@H](C(=O)N[C@@H](CC(C)C)C(=O)N[C@H](C(=O)N[C@H](C(=O)NCC(=O)N[C@@H](CC(C)C)C(=O)N1CCC[C@H]1C(=O)N[C@@H](C)C(=O)N[C@@H](CC(C)C)C(=O)N[C@H](C(=O)N[C@@H](CO)C(=O)N[C@@H](Cc1c[nH]c2ccccc12)C(=O)N[C@H](C(=O)N[C@@H](CCCCN)C(=O)N[C@@H](CCCNC(=N)N)C(=O)N[C@@H](CCCCN)C(=O)N[C@@H](CCCNC(=N)N)C(=O)N[C@@H](CCC(N)=O)C(=O)N[C@@H](CCC(N)=O)C(N)=O)[C@@H](C)CC)[C@@H](C)CC)[C@@H](C)O)[C@@H](C)O)C(C)C)C(C)C` [Melittin, reference compound], the “Therapeutic Index (MHC/GM), gram-negative” value in [1] came out at 0.098. For the same compound, the “GM of the MIC values, gram-negative” value in [1] (setting [7]) amounted to 4.00 µM. Moreover, the “Therapeutic Index (MHC/GM), gram-positive” value in [2] was found to be 0.117. Also, the “GM of the MIC values, gram-positive” value in data set [2] (setting [8]) came to 3.33 µM. Moreover, in the data set on Eenterococcus faecalis (setting [9]), the “MIC, Eenterococcus faecalis” value is 2.00 µM (≈ 5.69 µg/mL). Also, the “MHC (minimal peptide concentration that produces hemolysis)” value in the data set with human erythrocytes worked out at 0.391 µM. In data set [3], the “permeabilization of zwitterionic vesicles, in words” value was “membrane-disrupting activities against both negatively charged and zwitterionic vesicles”. Moreover, the “MIC, MDRST 8009(R)” value against MDRST 8009(R) is 8.00 µM (≈ 22.8 µg/mL). The “MIC, MDRAB 12035(R)” value in the data set with MDRAB 12035(R) amounted to 4.00 µM (≈ 11.4 µg/mL). Moreover, the “MIC, MDRPA 2095(R)” value with MDRPA 2095(R) (setting [10]) was determined as 2.00 µM (≈ 5.69 µg/mL). Also, the “MIC, MDREC 1229(R)” value against MDREC 1229(R) (setting [10]) was found to be 8.00 µM (≈ 22.8 µg/mL). In data set [4] (hRBCs and RAW264.7 cells (Fig. 4A,B)), the “cytotoxicity at the peptide's MIC” value is on record as “high cytotoxicity at its MIC”.
For the compound “AVAVVGQAATVVK-NH2 [PapC, C-terminal analog composed of C-terminal helix residues Ala25–Lys37 of papiliocin]”, the “Therapeutic Index (MHC/GM), gram-negative” value in data set [1] came to 0.007. In addition, the “GM of the MIC values, gram-negative” value in data set [1] (setting [7]) came to 213 µM. Also, the “Therapeutic Index (MHC/GM), gram-positive” value in data set [2] turned out to be 0.006. Further, the “GM of the MIC values, gram-positive” value in [2] (setting [8]) was found to be 256 µM. The “MIC, Salmonella typhimurium” value against Salmonella typhimurium (setting [9]) was more than 128 µM. Also, the “MIC, Escherichia coli” value with Escherichia coli (setting [9]) turned out to be 128 µM. The “MIC, Bacillus subtilis” value in the data set with Bacillus subtilis (setting [9]) is more than 128 µM. Further, the “MIC, Eenterococcus faecalis” value against Eenterococcus faecalis (setting [9]) is more than 128 µM. Also, the “MIC, Staphylococcus aureus” value in the data set with Staphylococcus aureus (setting [9]) is more than 128 µM. For the same compound, in the data set with Pseudomonas aeruginosa (setting [9]), the “MIC, Pseudomonas aeruginosa” value is more than 128 µM. In addition, the “MHC (minimal peptide concentration that produces hemolysis)” value with human erythrocytes was determined as 1.56 µM. In the data set with human erythrocytes (human erythrocytes, 6.25 μM peptide), this compound registered a hemolytic activity of 49%. The “permeabilization of zwitterionic vesicles, in words” value in data set [3] is recorded as “permeabilized zwitterionic vesicles effectively”. Also, the “inhibition of NO production, in words” value in [5] is listed as “does not inhibit NO production”. Besides, the “killing of E. coli within an hour” value in the data set on E. coli (KCTC 1682) is reported as “did not detectably kill bacteria within an hour”. Moreover, in data set [6], the “STD effect in presence of LPS” value was “not detected for any region”. The “MIC, MDRST 8009(R)” value in the data set on MDRST 8009(R) is more than 128 µM. Also, the “MIC, MDRAB 12035(R)” value with MDRAB 12035(R) is more than 128 µM. The “MIC, MDRPA 2095(R)” value with MDRPA 2095(R) (setting [10]) is more than 128 µM. Besides, the “MIC, MDREC 1229(R)” value in the data set with MDREC 1229(R) (setting [10]) is more than 128 µM. Also, in data set [4] (MTT, 10 μM peptide), the “survival rate of RAW264.7 cells” value was determined as 44.2%.
Take “RWKIFKKIEKVGRNVRDGIIKAGPAVAVVGQAATVVK-NH2 [Papiliocin]”: the “GM of the MIC values, gram-negative” value in data set [1] (16 h) came to 0.417 µM. Besides, the “GM of the MIC values, gram-positive” value in data set [2] (16 h) was determined as 37.3 µM. Moreover, the “Therapeutic Index (MHC/GM), gram-positive” value in data set [2] worked out at 5.36; in data set [2] (listed as papiliocin), 12.0. Further, the “MIC, Salmonella typhimurium” value against Salmonella typhimurium (murium, 16 h) came out at 0.500 µM. For the same compound, the “MIC, Escherichia coli” value in the data set with Escherichia coli (16 h) worked out at 0.250 µM. Also, the “MIC, Bacillus subtilis” value against Bacillus subtilis (16 h) is 16.0 µM. Moreover, the “MIC, Eenterococcus faecalis” value against Eenterococcus faecalis (E, 16 h) was 64.0 µM. In the data set on Staphylococcus aureus (16 h), the “MIC, Staphylococcus aureus” value was found to be 32.0 µM. Moreover, the “MIC, Pseudomonas aeruginosa” value in the data set with Pseudomonas aeruginosa (16 h) worked out at 0.500 µM. Further, the “MIC, MDRST 8009(R)” value against MDRST 8009(R) is 0.500 µM. In addition, the “MIC, MDRAB 12035(R)” value in the data set on MDRAB 12035(R) came to 0.500 µM. For the same compound, the “MIC, MDRPA 2095(R)” value in the data set with MDRPA 2095(R) came to 1.00 µM. In addition, the “MIC, MDREC 1229(R)” value in the data set on MDREC 1229(R) stood at 0.500 µM. The “cytotoxicity at the peptide's MIC” value in data set [4] was “not toxic at their MICs”.
